The results in this text go back to ChEMBL document CHEMBL1201862, “PubChem BioAssay data set” (2004).

Some test systems named below: 786-0; A549; HL-60; K562; Malme-3M; NCI-H226; RPMI-8226; RXF 393; SF-295; SNB-19; UACC-62; UO-31; SR.
What all share (test): NCI-60 cell line screen, 48 h

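Compound exposure: 48 hours, 5 concentrations, 96-well plates. GI50: concentration for 50% inhibition of growth.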 Activity calls are given as the source filed them. Cut-off read from the data, not from the text of the source: active = GI50 up to about 1.1 µM and inactive = higher. Where only a bound is given, the exact number is not on record here.

As to `S=C(Nc1ccccc1)Nc1[nH]c(=S)sc1-c1nc2ccccc2[nH]1`, the GI50 in the assay on 786-0 is 34.2 µM (inactive); in the assay on A549 it was 65.6 µM (inactive); in the assay on HL-60 it was > 100 µM (inactive); in the assay with K562 it was > 100 µM (inactive); in the assay with Malme-3M, 43 µM (inactive); in the assay with NCI-H226 it was 12.2 µM (inactive). Further, the GI50 in the assay with RPMI-8226 is 97.3 µM (inactive); in the assay with RXF 393, > 100 µM (inactive); with SF-295 it was 41.9 µM (inactive); in the assay with SNB-19, 36.9 µM (inactive); in the assay with UACC-62, 57.9 µM (inactive); in the assay with UO-31 it was > 100 µM (inactive).
Turning to `C=C1C2CC(OC(C)=O)C3(C)C(c4ccoc4)OC(=O)[C@@H](O)[C@]13OC1C[C@H](OC(C)=O)C(C)(C)[C@H](C(O)C(=O)OC)[C@]12C` (stereo not given in full), the GI50 with 786-0, in the assay on A549, with HL-60, in the assay with K562, in the assay on NCI-H226 and in the assay on RPMI-8226 was > 100 µM (inactive) throughout. For the same compound, the GI50 in the assay with SF-295, with SNB-19, with UACC-62 and in the assay with UO-31 was > 100 µM (inactive) each time.
For the compound `O=C(Cc1nc2c3c(ccc2nc1O)C(=O)c1ccccc1C3=O)C(=O)Nc1ccccc1[N+](=O)[O-]`, the GI50 in the assay with 786-0 is 15.3 µM (inactive); in the assay with A549, 49.4 µM (inactive); in the assay on HL-60 it was 14.5 µM (inactive); with K562, 12.6 µM (inactive); with Malme-3M, 19.1 µM (inactive); in the assay on NCI-H226 it was 20.6 µM (inactive). The GI50 in the assay with RPMI-8226 is 11.4 µM (inactive); in the assay on SF-295 it was > 10 µM (inactive); with SNB-19, 16.6 µM (inactive); in the assay with SR, 11.7 µM (inactive); in the assay with UACC-62, 25.6 µM (inactive); in the assay on UO-31 it was 27.5 µM (inactive).
Regarding `COc1cc2c(cc1OC(=O)CC(C)O)C1C(OC2=O)C(OC(C)=O)C=C2CCN(C)[C@H]21` (stereo not given in full), the GI50 in the assay on 786-0 is 17.9 µM (inactive); in the assay with A549, 64.3 µM (inactive); with K562, > 100 µM (inactive); in the assay on NCI-H226, 27.5 µM (inactive); in the assay on SF-295 it was 20.7 µM (inactive); in the assay on SNB-19, 20.7 µM (inactive). In addition, the GI50 was 74.5 µM (inactive) in the assay on SR, 31.1 µM (inactive) with UACC-62 and 47 µM (inactive) in the assay with UO-31.
Regarding `C[N+](C)(C)CC(CC(=O)[O-])C1CC1` (stereo not given), the GI50 in the assay on 786-0, in the assay with A549, in the assay on HL-60, with K562, with Malme-3M and in the assay with RPMI-8226 was > 100 µM (inactive) each time. In addition, the GI50 in the assay with RXF 393, with SF-295, in the assay with SNB-19, in the assay on UACC-62 and in the assay with UO-31 was > 100 µM (inactive) in each case.
As to `Clc1cccc2c1OCC1C(c3ccccc3)=NN(c3ccccc3)C21` (stereo not given), the GI50 was 55.6 µM (inactive) in the assay with 786-0; 66.2 µM (inactive) in the assay on A549; 31.8 µM (inactive) with HL-60; 28.9 µM (inactive) in the assay on K562; > 100 µM (inactive) in the assay with Malme-3M; 22.8 µM (inactive) in the assay on RPMI-8226. Moreover, the GI50 with RXF 393 was > 100 µM (inactive); in the assay on SF-295, 72.1 µM (inactive); with SNB-19, 96.4 µM (inactive); in the assay with UO-31 it was 60.8 µM (inactive).
For `COc1cc(/C=C\c2ccc(Cl)cc2)cc(OC)c1OC`, the GI50 in the assay with 786-0 is 0.113 µM (active); with A549, 0.196 µM (active); in the assay with HL-60, 0.0251 µM (active); in the assay on K562, 0.033 µM (active); in the assay on Malme-3M, 0.184 µM (active); with NCI-H226 it was 0.24 µM (active). The GI50 in the assay on RPMI-8226 was 0.143 µM (active); in the assay with RXF 393 it was 0.2 µM (active); in the assay on SF-295, 0.0331 µM (active); with SNB-19, 0.322 µM (active); with SR it was 0.0652 µM (active); in the assay with UACC-62 it was 0.0885 µM (active). In the assay on UO-31, the GI50 is 0.593 µM (active).
Regarding `C/C(=C1/N=C(c2cc([N+](=O)[O-])ccc2Cl)N(c2ccc(Br)cc2)C1=O)c1ccc(N(CCC#N)CCC#N)cc1C`, the GI50 was 29.6 µM (inactive) with 786-0; 22.5 µM (inactive) with A549; 16.2 µM (inactive) in the assay with HL-60; 7.78 µM (inactive) with K562; 77.8 µM (inactive) in the assay on Malme-3M; > 100 µM (inactive) in the assay with NCI-H226. Moreover, the GI50 in the assay with RPMI-8226 is 28.1 µM (inactive); with RXF 393, 16.8 µM (inactive); with SF-295, 79.3 µM (inactive); in the assay with SNB-19, 19.8 µM (inactive); with SR it was 7.98 µM (inactive); in the assay with UACC-62 it was 3.61 µM (inactive). Besides, the GI50 in the assay on UO-31 was 24.7 µM (inactive).
Take `COc1ccc(-c2cc(O)c3ccc(F)cc3n2)cc1`: the GI50 with 786-0, in the assay with A549, in the assay with HL-60, with K562, with Malme-3M and in the assay with NCI-H226 was > 100 µM (inactive) throughout. Besides, the GI50 with RPMI-8226, in the assay on RXF 393, in the assay with SF-295, in the assay on SNB-19, in the assay with SR and with UACC-62 was > 100 µM (inactive) throughout. Also, the GI50 in the assay on UO-31 was > 100 µM (inactive).
Turning to `Cc1cc(NCCCCCCCCNc2cc(C)nc3cc(N(C)C)ccc23)c2ccc(N(C)C)cc2n1`, the GI50 with 786-0 was 7.16 µM (inactive); with A549, 3.31 µM (inactive); in the assay with HL-60 it was 0.711 µM (active); in the assay with K562 it was 0.881 µM (active); in the assay on RPMI-8226 it was 0.736 µM (active); with RXF 393 it was 12.9 µM (inactive). Besides, the GI50 with SF-295 is 8.65 µM (inactive); in the assay on SNB-19, 3.09 µM (inactive); with SR, 2.82 µM (inactive); in the assay with UO-31 it was 75.5 µM (inactive).
Turning to `C/C(CC(=O)Nc1cc(C)ccc1C)=N\NC(=O)c1ccncc1`, the GI50 in the assay on 786-0, in the assay on A549, in the assay with HL-60, in the assay on K562, in the assay with Malme-3M and in the assay on NCI-H226 was > 100 µM (inactive) in each case. Also, the GI50 in the assay on RPMI-8226, in the assay with RXF 393, in the assay on SF-295, with UACC-62 and in the assay on UO-31 was > 100 µM (inactive) each time.
With `CCCCCCCCCCCCCCCCCCCCCC(=O)Nc1ccn(C2OC(CO)C(O)C2O)c(=O)n1` (stereo not given), the GI50 with 786-0 was 9.62 µM (inactive); with A549, 4.68 µM (inactive); with HL-60, 10 µM (inactive); in the assay with K562, > 50.6 µM (inactive); with Malme-3M, > 42.4 µM (inactive); in the assay on NCI-H226 it was > 100 µM (inactive). In addition, the GI50 with RPMI-8226 was > 100 µM (inactive); with RXF 393 it was > 100 µM (inactive); with SF-295, > 84.3 µM (inactive); in the assay with SNB-19 it was > 57 µM (inactive); with SR, 1.67 µM (inactive); in the assay with UACC-62, 33.6 µM (inactive). Besides, the GI50 in the assay with UO-31 is 32.1 µM (inactive).
As to `COc1cc(C(O)C(=O)c2cnc3cc([N+](=O)[O-])ccc3n2)ccc1O` (stereo not given), the GI50 in the assay on 786-0 is > 100 µM (inactive); in the assay with A549, > 100 µM (inactive); in the assay with HL-60, 86.5 µM (inactive); with K562 it was > 100 µM (inactive); in the assay on Malme-3M, > 100 µM (inactive); in the assay on RPMI-8226, > 100 µM (inactive). In addition, the GI50 with RXF 393 was 64.1 µM (inactive); in the assay with SF-295, > 100 µM (inactive); in the assay on SNB-19 it was > 100 µM (inactive); with SR, > 100 µM (inactive); in the assay on UACC-62, 62.1 µM (inactive); in the assay with UO-31 it was > 100 µM (inactive).
`Cc1ccc(NC(=O)C(=O)CC(=O)C2CCOC2=O)c(C)c1` (stereo not given): the GI50 with 786-0, in the assay with A549, with HL-60, in the assay with K562, in the assay with Malme-3M and in the assay with NCI-H226 was > 100 µM (inactive) in each case. The GI50 in the assay with RPMI-8226, in the assay with RXF 393, in the assay on SF-295, with SNB-19, in the assay on UACC-62 and in the assay with UO-31 was > 100 µM (inactive) each time.
For `O=c1oc2c(O)c(O)cc3c(=O)oc4c(O)c(O)cc1c4c23` [ELLAGIC ACID], the GI50 is 27.2 µM (inactive) in the assay on 786-0; 68.2 µM (inactive) with A549; > 10 µM (inactive) in the assay on HL-60; > 10 µM (inactive) in the assay on K562; > 10 µM (inactive) with Malme-3M; 23.6 µM (inactive) in the assay on NCI-H226. For the same compound, the GI50 is > 10 µM (inactive) in the assay with RPMI-8226; > 10 µM (inactive) with RXF 393; > 10 µM (inactive) in the assay with SF-295; 18.7 µM (inactive) in the assay on SNB-19; 71.1 µM (inactive) in the assay with SR; 40.8 µM (inactive) with UACC-62. Moreover, in the assay with UO-31, the GI50 was 39.7 µM (inactive).
With `O=C(c1ccncc1)n1nc(-c2ccccc2)c(/N=N/c2ccccc2[N+](=O)[O-])c1-c1ccccc1`, the GI50 was 76 µM (inactive) in the assay on 786-0; 39.4 µM (inactive) in the assay on A549; 46.2 µM (inactive) in the assay on HL-60; 36.3 µM (inactive) with K562; > 100 µM (inactive) in the assay on Malme-3M; 28.3 µM (inactive) in the assay with RPMI-8226. Also, the GI50 with SF-295 is 32.1 µM (inactive); in the assay on SNB-19, 36.9 µM (inactive); in the assay with SR, 36.6 µM (inactive); in the assay on UACC-62 it was 75.3 µM (inactive); with UO-31 it was 9.62 µM (inactive).
